How the values were obtained:
Type in all cases: in vivo
Conditions in all cases: assessed visually twelve days after spraying, 0-9 scale, 0 = growth as untreated control, 9 = death
soya bean, Glycine max [1] = assay: Herbicidal activity, pre-emergence test (soil spray)
Experimental: (§1) To evaluate their herbicidal activity, compounds according to the invention were tested using as representative range of plants: maize, Zea mays (Mz); rice, Oryza sativa (R); barnyard grass, Echinochloa crusgalli (BG); oat, Avena sativa (0); linseed, Linum usitatissisum (L); mustard, Sinapsis alba (M); sugar beet, Beta vulgaris (SB) and soya bean, Glycine max (S).
(§2) The tests fall into two categories, pre-emergence and post-emergence. […] The post-emergence tests involved two types of test, viz., soil drench and foliar spray tests. In the soil drench tests the soil in which the seedling plants of the above species were growing was drenched with a liquid formulation containing a compound of the invention, and in the foliar spray tests the seedling plants were sprayed with such a formulation.
(§3) The soil used in the tests was a prepared horticultural loam.
(§4) These acetone solutions were diluted with water and the resulting formulations applied at dosage levels corresponding to 5 kg or 1 kg of active material per hectare in a volume equivalent to 600 litres per hectare in the soil spray and foliar spray test, and at a dosage of level equivalent to 10 kilograms of active material per hectare in a volume equivalent to approximately 3,000 litres per hectare in the soil drench tests.
(§5) In the pre-emexgence tests untreated sown soil and in the post-emergence tests untreated soil bearing seedling plants were used as controls.
(§6) The herbicidal effects of the test compounds were assessed visually twelve days after spraying the foliage and the soil, and thirteen days after drenching the soil and were recorded on a 0-9 scale. A rating 0 indicates growth as untreated control, a rating 9 indicates death. An increase of 1 unit on the linear scale approximates to a 10% increase in the level of effect.

[2] = system: sugar beet, Beta vulgaris; assay: as above
Experimental: as §1, §2, §3, §4, §5, §6

rice, Oryza sativa [3] = assay: as above
Experimental: as §1, §2, §3, §4, §5, §6

[4] = system: barnyard grass, Echinochloa crusgalli; assay: as above
Experimental: as §1, §2, §3, §4, §5, §6

maize, Zea mays [5] = assay: as above
Experimental: as §1, §2, §3, §4, §5, §6

[6] = system: linseed, Linum usitatissisum; assay: as above
Experimental: as §1, §2, §3, §4, §5, §6

oat, Avena sativa [7] = assay: as above
Experimental: as §1, §2, §3, §4, §5, §6

mustard, Sinapsis alba [8] = assay: as above
Experimental: as §1, §2, §3, §4, §5, §6

soya bean, Glycine max [9] = assay: Herbicidal activity, post-emergence foliar spray test
Experimental: as §1, §2, §3, §4, §5, §6

[10] = system: sugar beet, Beta vulgaris; assay: as above
Experimental: as §1, §2, §3, §4, §5, §6

rice, Oryza sativa [11] = assay: as above
Experimental: as §1, §2, §3, §4, §5, §6

[12] = system: barnyard grass, Echinochloa crusgalli; assay: as above
Experimental: as §1, §2, §3, §4, §5, §6

maize, Zea mays [13] = assay: as above
Experimental: as §1, §2, §3, §4, §5, §6

[14] = system: linseed, Linum usitatissisum; assay: as above
Experimental: as §1, §2, §3, §4, §5, §6

oat, Avena sativa [15] = assay: as above
Experimental: as §1, §2, §3, §4, §5, §6

mustard, Sinapsis alba [16] = assay: as above
Experimental: as §1, §2, §3, §4, §5, §6

## CC(C)C1(C)NC(c2cc3c(cc2C(=O)O)OCO3)=NC1=O (centres unmarked) [Example 7, 2-(5-isopropyl-5-methyl-4-oxo-2-imidazolin-2-yl)-[1,3]-dioxolo [4,5-d]benzoic acid]
Soya bean, Glycine max [1]; Dosage 1 kg/ha
  Pre-emergence S (herbicidal effect rating): 0
Soya bean, Glycine max [1]; Dosage 5 kg/ha
  Pre-emergence S (herbicidal effect rating): 1
[2]; Dosage 1 kg/ha
  Pre-emergence SB (herbicidal effect rating): 7
[2]; Dosage 5 kg/ha
  Pre-emergence SB (herbicidal effect rating): 8
rice, Oryza sativa [3]; Dosage 1 kg/ha
  Pre-emergence R (herbicidal effect rating): 8
rice, Oryza sativa [3]; Dosage 5 kg/ha
  Pre-emergence R (herbicidal effect rating): 9
[4]; Dosage 1 kg/ha
  Pre-emergence BG (herbicidal effect rating): 3
[4]; Dosage 5 kg/ha
  Pre-emergence BG (herbicidal effect rating): 7
maize, Zea mays [5]; Dosage 1 kg/ha
  Pre-emergence Mz (herbicidal effect rating): 1
maize, Zea mays [5]; Dosage 5 kg/ha
  Pre-emergence Mz (herbicidal effect rating): 6
[6]; Dosage 1 kg/ha
  Pre-emergence L (herbicidal effect rating): 3
[6]; Dosage 5 kg/ha
  Pre-emergence L (herbicidal effect rating): 7
oat, Avena sativa [7]; Dosage 1 kg/ha
  Pre-emergence O (herbicidal effect rating): 0
oat, Avena sativa [7]; Dosage 5 kg/ha
  Pre-emergence O (herbicidal effect rating): 5
mustard, Sinapsis alba [8]; Dosage 1 kg/ha
  Pre-emergence M (herbicidal effect rating): 4
mustard, Sinapsis alba [8]; Dosage 5 kg/ha
  Pre-emergence M (herbicidal effect rating): 7
Soya bean, Glycine max [9]; Dosage 1 kg/ha
  Foliar spray S (herbicidal effect rating): 0
Soya bean, Glycine max [9]; Dosage 5 kg/ha
  Foliar spray S (herbicidal effect rating): 4
[10]; Dosage 1 kg/ha
  Foliar spray SB (herbicidal effect rating): 6
[10]; Dosage 5 kg/ha
  Foliar spray SB (herbicidal effect rating): 7
rice, Oryza sativa [11]; Dosage 1 kg/ha
  Foliar spray R (herbicidal effect rating): 2
rice, Oryza sativa [11]; Dosage 5 kg/ha
  Foliar spray R (herbicidal effect rating): 3
[12]; Dosage 1 kg/ha
  Foliar spray BG (herbicidal effect rating): 5
[12]; Dosage 5 kg/ha
  Foliar spray BG (herbicidal effect rating): 6
maize, Zea mays [13]; Dosage 1 kg/ha
  Foliar spray Mz (herbicidal effect rating): 2
maize, Zea mays [13]; Dosage 5 kg/ha
  Foliar spray Mz (herbicidal effect rating): 3
[14]; Dosage 1 kg/ha
  Foliar spray L (herbicidal effect rating): 3
[14]; Dosage 5 kg/ha
  Foliar spray L (herbicidal effect rating): 4
oat, Avena sativa [15]; Dosage 1 kg/ha
  Foliar spray O (herbicidal effect rating): 1
oat, Avena sativa [15]; Dosage 5 kg/ha
  Foliar spray O (herbicidal effect rating): 2
mustard, Sinapsis alba [16]; Dosage 1 kg/ha
  Foliar spray M (herbicidal effect rating): 7
mustard, Sinapsis alba [16]; Dosage 5 kg/ha
  Foliar spray M (herbicidal effect rating): 7
